In series [1] the target is T1, Autotaxin (ATX) (Homo sapiens, UniProt Q13822).
T1 construct: we added 10 μL of recombinant ATX (2 ng/mL) in a Tris–HCl buffer
The experiment in a line: biochemical choline detection assay for ATX inhibition, LysoPC substrate. The conditions noted are these: for IC50: mean standard deviation from duplicate experiments. Here is the method: All 21 new benzoxaboroles derivatives prepared herein were evaluated for ATX inhibition in vitro using a biochemical choline detection assay, combining elements of assays already described in the literature.
[…] Mother plates with serial dilutions of compounds in pure DMSO were prepared from 10 mM DMSO stock solutions. Storplate-384-deep-well-V plates (Perkin Elmer) were also used for mother plate preparation. Compounds were diluted in a DMSO in a ratio of 1:3. An aliquot of 200 nL of compound solution was transferred from the mother plate to the test plate with a Mosquito nanoliter liquid handling system (TTP labtech). The assay was performed in Spectra-Plate-384 TC, transparent, (Perkin Elmer, Cat#6007658) using a 20 µL assay volume. The total final percentage of DMSO in the test media was 1%. Compounds were tested at 11 consecutive three-fold dilutions starting from 50 µM (final concentrations) in duplicate, covering range of 0.0008–50 μM to determine IC50 values. […] After dispensing of compounds directly to the dry plate, we added 10 μL of recombinant ATX (2 ng/mL) in a Tris–HCl buffer (140 mM NaCl, 1mM MgCl2, 5 mM KCl, 3 mM CaCl2, 1 mg/ml bovin serum albumin (BSA, fatty acid free) and 100 mM Tris–HCl, pH 9). […] The above-described solution with dimethyl sulfoxide but without the test compound was used as a control. LysoPC without ATX was used as a control for the autohydrolysis of LysoPC. After 1.5 h of incubation, 20 μL of stop solution and developer was added {Choline oxidase (1.2 U/mL), Peroxidase (1.2 U/mL), TOOS (2.7 mM), 4-Aminoantipyrine (2.7 mM), and EDTA (50 mM)} to the reaction mixture, and absorbance was measured after 30 min of incubation. The absorbance was measured by using Perkin-Elmer EnVision plate reader (λ = 555 nm). Data were analyzed using GraphPad Prism software. The calculation of IC50 data, curves and quality control (QC) analysis was made by using Excel tools and GraphPadPrism software. Briefly, individual concentration–effect curves were generated by plotting the logarithm of the tested concentration of tested compounds (X) vs. corresponding percentage inhibition values (Y) using a least squares (ordinary) fit. […] QC criteria parameters (Z,’ S:B, ΔmP) were checked for every plate.

A short description of series [2]: Chrom logD determination by gradient HPLC (CHI). The conditions noted are these: pH 7.4, Luna C18 column; for chromatographic logD: reversed-phase HPLC, Phenomenex Luna C18 column. It is filed as physicochemical. Here is the method:
clogP values were calculated for all compounds using the Percepta software. Chrom logD was determined experimentally using a procedure described in the supplementary data. Furthermore, the correlation between calculated clogP values and experimentally determined Chrom log D values were explored for molecules containing boron functional groups such as boronic acids and benzoxaboroles.
Chrom logD values were determined from the following equation: Chrom logD = 0.0857 × CHI − 2 [39]. Chromatographic hydrophobic index (CHI) values were determined from the gradient retention times (RT). These values approximately corresponded to the volume percentage of organic component in the mobile phase when the compound elutes. CHI values were determined at pH 7.4. Chromatograms were obtained using on Agilent 1100 Series liquid chromatography system with an HPLC diode-array detector (DAD) coupled with a Micromass Quattro micro atmosphere pressure ionization (API) mass spectrometer. The column used for analyses was Phenomenex Luna C18 (50 × 3 mm, 5 µm, 100 Å). The column was maintained at 25 °C. The flow rate was 1.0 mL/min. The mobile phase was composed of 50 mM ammonium acetate in water at pH 7.4 (solvent A) and acetonitrile (solvent B). The solvent gradient condition was initially 0.5% B, and then it increased linearly to 100% B over 3.0 min, remaining at 100% B for 0.5 min, then decreasing linearly to 0% B over 0.2 min followed by an equilibration period of 1.3 min prior to the next injection. The total experimental duration was 5 min. Injection volume was 2.0 µl. Samples temperature was maintained at 15 °C in the autosampler chamber. A group of ten standard compounds having different CHI values was used for calibration of RP-HPLC [40].

Series [3] can be described thus: in vitro plasma stability, rat plasma. The conditions noted are these: after 4 h. The format is in vitro ADME. Here is the method:
(§1) The in vitro plasma stability of the test compounds was studied in human and rat plasma with propranolol, benflorex, and eucatropine as control substances. All compounds at final concentrations of 5 μM (0.5% DMSO) were incubated in a phosphate buffer (50 mM, pH 7.4) for 4 h at 37 °C together with plasma. Aliquots were taken at different time points (0, 30, 120 min and 4 h), followed by reaction termination by the addition of CH3CN:CH3OH 2:1 v/v., which contained diclofenac and warfarin as internal standards (IS). Samples were then centrifuged (at 1600 rpm at 4 °C for 30 min), and the resulting supernatants were subjected to LC/MS/MS analysis. Results are expressed as % remaining.

A short description of series [4]: kinetic solubility, turbidimetric method. It is filed as physicochemical. The conditions noted are these: 37 °C, pH 7.4, aqueous buffer, kinetic from dmso stock, Solubility (kinetic solubility range). Here is the method: Turbidimetric solubility allows for a rapid determination of kinetic solubility by using small amounts of the test compound. Assay controls were α-naphtoflavone (low solubility) and sulfaphenazole (expected solubility >100µM). DMSO stock solutions (10 mM) of each compound were first serially diluted 1 in 3 in DMSO and then spiked into an aqueous buffer (100 mM PBS), resulting in 5 following final concentration: 100, 30, 10, 3 and 1 µM (each concentration was tested in duplicate). […] Compound samples were compared to a solvent control in an aqueous buffer (DMSO 1% final concentration), and a significant increase of sample absorbance was considered to have occurred when the absorbance reached a 3-fold standard deviation of the average DMSO absorbance. The calculation of solubility range data was made by Excel tool software. Results are expressed as an estimated solubility range.

The nature of series [5]: metabolic stability in human liver microsomes. The format is in vitro ADME. Here is the method: (§2) Metabolic stability was assessed in rat and human liver microsomes, with testosterone and propranolol as positive controls. All compounds, at a final concentration of 1 μM (0.03% DMSO), were incubated in a phosphate buffer (50 mM, pH 7.4) for 60 min at 37 °C, together with liver microsomes in the absence and presence of NADPH generating system (nicotinamide adenine dinucleotide phosphate (NADP, 2 mM), glucose-6-phosphate (20 mM), glucose-6-phosphate dehydrogenase (6U) and magnesium chloride (2 mM)). Aliquots were taken at different time points (0, 10, 20, 30, 45 and 60 min), followed by reaction termination by addition of CH3CN:CH3OH 2:1 v/v, containing diclofenac as internal standard (IS). Samples were then centrifuged (at 2000 rpm at 4 °C for 30 min), and resulting supernatants were subjected to LC/MS/MS analysis. The in vitro half-life was calculated in GraphPadPrism software from % remaining vs. time regression using non-linear regression fit. In vitro intrinsic clearance, expressed as mL/min/g liver, was determined from in vitro half-life and normalized for the protein concentration in the incubation mixture, assuming a 52.5 mg/g liver.

Series [6] in a line: in vitro plasma stability, human plasma. The format is in vitro ADME. The conditions noted are these: after 4 h. Here is the method:
as §1

The nature of series [7]: metabolic stability in rat liver microsomes. It is filed as in vitro ADME. Here is the method:
as §2

Where [8] appears, read: choline release assay using as a substrate.
Setting [9] is: choline release assay using LPC C16:0 as a substrate.

Values after ≈ are worked out from the molar mass of the structure shown.

The text below walks through data of paper PMC6804080, “Benzoxaboroles—Novel Autotaxin Inhibitors” (Molecules, 2019).

The molecule `COc1cc(COC(=O)N2CCN(C3CCN(C(=O)c4ccc5c(c4)COB5O)C3)CC2)cc(OC)c1` (centres unmarked) [Compound 48, (3,5-dimethoxyphenyl)methyl 4-[1-(1-hydroxy-3H-2,1-benzoxaborole-5-carbonyl)pyrrolidin-3-yl]piperazine-1-carboxylate] came in with an IC50 in series [1] (setting [8]) of 15 ± 6.07 µM. Further, the chromatographic logD in series [2] came out at 3.03.
For `O=C(OCc1ccccc1)N1CCN(C2CN(C(=O)c3ccc4c(c3)COB4O)C2)CC1` [Compound 42, benzyl 4-[1-(1-hydroxy-3H-2,1-benzoxaborole-5-carbonyl)azetidin-3-yl]piperazine-1-carboxylate] the same measures were greater than 50 µM and 2.9.
`O=C(OCc1cc(Cl)cc(Cl)c1)N1CCN(C2CCN(C(=O)c3cccc4c3COB4O)C2)CC1` (centres unmarked) [Compound 33]: the IC50 in series [1] (setting [9]) was 8 ± 2.58 µM. Also, in series [2], the “Chrom logD” value is listed as 5.40.
Turning to `O=C(OCc1ccccc1)N1CCN(C2CN(C(=O)c3ccc4c(c3)B(O)OC4)C2)CC1` [Compound 41, benzyl 4-[1-(1-hydroxy-3H-2,1-benzoxaborole-6-carbonyl)azetidin-3-yl]piperazine-1-carboxylate], in series [1] (setting [8]), the IC50 was 23 ± 1.18 µM. For the same molecule, the chromatographic logD in series [2] was determined as 3.07.
In series [1] (setting [8]), `O=C(OCc1cc(Cl)cc(Cl)c1)N1CCN(C2CCN(C(=O)c3ccc4c(c3)COB4O)C2)CC1` (centres unmarked) [Compound 32, (3,5-dichlorophenyl)methyl 4-[1-(1-hydroxy-3H-2,1-benzoxaborole-5-carbonyl)pyrrolidin-3-yl]piperazine-1-carboxylate] displayed an IC50 of 0.37 ± 0.35 µM. For the same molecule, the “ATX inhibition, range of activity” value in series [1] (in words) was “nanomolar range”. The molecule also came in with a chromatographic logD in series [2] of 4.38.
`COc1cc(COC(=O)N2CCN(C3CCN(C(=O)c4ccc5c(c4)B(O)OC5)C3)CC2)cc(OC)c1` (centres unmarked) [Compound 47, (3,5-dimethoxyphenyl)methyl 4-[1-(1-hydroxy-3H-2,1-benzoxaborole-6-carbonyl)pyrrolidin-3-yl]piperazine-1-carboxylate] yielded an IC50 in series [1] (setting [8]) of 14 ± 5.5 µM. Besides, the chromatographic logD in series [2] was 3.19.
Consider `COc1cc(COC(=O)N2CCN(C3CN(C(=O)c4ccc5c(c4)B(O)OC5)C3)CC2)cc(OC)c1` [Compound 49, (3,5-dimethoxyphenyl)methyl 4-[1-(1-hydroxy-3H-2,1-benzoxaborole-6-carbonyl)azetidin-3-yl]piperazine-1-carboxylate], for which the IC50 in series [1] (setting [8]) is 11 ± 4.59 µM. In series [2], the chromatographic logD came to 3.21.
In series [1] (setting [8]), `Cc1cc(C)cc(COC(=O)N2CCN(C3CN(C(=O)c4ccc5c(c4)COB5O)C3)CC2)c1` [Compound 46, (3,5-dimethylphenyl)methyl 4-[1-(1-hydroxy-3H-2,1-benzoxaborole-5-carbonyl)azetidin-3-yl]piperazine-1-carboxylate] registered an IC50 of 5.1 ± 2.75 µM. For the same molecule, in series [2], the chromatographic logD was found to be 4.01.
For `O=C(OCc1ccccc1)N1CCN(C2CCN(C(=O)c3ccc4c(c3)COB4O)C2)CC1` (centres unmarked) [Compound 40, benzyl 4-[1-(1-hydroxy-3H-2,1-benzoxaborole-5-carbonyl)pyrrolidin-3-yl]piperazine-1-carboxylate], in that order: greater than 50 µM and 2.9.
For the molecule `COc1cc(COC(=O)N2CCN(C3CN(C(=O)c4ccc5c(c4)COB5O)C3)CC2)cc(OC)c1` [Compound 50], the IC50 in series [1] (setting [9]) stood at 13 ± 3.26 µM. The “Chrom logD” value in series [2] amounted to 3.07.
In turn, `O=C(OCc1cc(Cl)cc(Cl)c1)N1CCN(C2CN(C(=O)c3ccc4c(c3)COB4O)C2)CC1` [Compound 38, (3,5-dichlorophenyl)methyl 4-[1-(1-hydroxy-3H-2,1-benzoxaborole-5-carbonyl)azetidin-3-yl]piperazine-1-carboxylate] had an IC50 in series [1] (setting [8]) of 2 ± 1.73 µM. The “PS (plasma stability), rat” value in series [3] is on record as 60.1 %remaining. The kinetic solubility at 1 h in series [4] fell in the range of 30 to 100 µM (≈ 15.1 to 50.4 µg/mL). For the same molecule, the “LMS: predicted in vivo hepatic clearance, human” value in series [5] is listed as 79 %LBF. The “PS (plasma stability), human” value in series [6] is reported as 79.1 %remaining. Also, the chromatographic logD in series [2] was 4.46. In series [7], the “LMS: predicted in vivo hepatic clearance, rat” value is 82 %LBF.
Take `Cc1cc(C)cc(COC(=O)N2CCN(C3CCN(C(=O)c4ccc5c(c4)COB5O)C3)CC2)c1` (centres unmarked) [Compound 44, (3,5-dimethylphenyl)methyl 4-[1-(1-hydroxy-3H-2,1-benzoxaborole-5-carbonyl)pyrrolidin-3-yl]piperazine-1-carboxylate]: in series [1] (setting [8]), the IC50 was determined as 4.7 ± 1.14 µM. The same molecule gave a chromatographic logD in series [2] of 3.99.
For `O=C(OCc1ccccc1)N1CCN(C2CCN(C(=O)c3ccc4c(c3)B(O)OC4)C2)CC1` (centres unmarked) [Compound 39, benzyl 4-[1-(1-hydroxy-3H-2,1-benzoxaborole-6-carbonyl)pyrrolidin-3-yl]piperazine-1-carboxylate], in that order: greater than 50 µM and 3.05.
